# From patent publication US20240116971A1, “NMN AND DERIVATIVES FOR ITS USE IN THE TREATMENT OF DEPRESSION AND/OR ANXIETY IN PATIENTS HAVING A FORM OF PARKINSONISM” (Nuvamid SA, priority 2021, published 2024)
# Assays:
# Type in all cases: in vivo, human
# MSA patients [1] = assay: Safety of NMN dietary supplement: hemodynamic, blood count, inflammatory, liver, kidney, cardiac/muscular, metabolic parameters, adverse events
# Protocol: The purpose of the multicentric, prospective, non-randomised, non-controlled pilot study is to study the efficacy of NMN administration in MSA patients (45-80 years old) at a larger scale. In this study, the safety, tolerance and efficacy of a dose of NMN are evaluated. The amount of NMN to be ingested daily is divided into 2 capsules (Size 0). Each patient takes 2 capsules/day in the morning during breakfast with a big glass of water. The composition of each capsule is as follows:
# The main objectives of the study are to evaluate the safety of the dietary supplement during a 12-week supplementation. The safety of the food supplement is assessed in terms of: • a) Hemodynamic parameters: • Blood pressure (systolic and diastolic arterial pressure (SAP, DAP) standing up and lying down (2 min)), • Heart rate (HR, standing up/lying down (2 min)). • b) Blood Formula Counting: • Hematies, • Leukocytes (lymphocytes, monocytes, neutrophils, basophils, eosinophils), • Platelets. • c) Inflammatory parameters: • C Reactive Protein (CRP), • Sedimentation rate. • d) Liver function: • ASAT, • ALAT, • gamma GT, • Alkaline phosphatases. • e) Kidney function: • Creatinemia, • Urea. • Cardiac and muscular function: • Creatine Phosphokinase (CPK). • f) Metabolic/biochemical parameters: • lonogram (Na+, K+, Cl−), • glycated hemoglobin • g) Occurrence of undesirable effects.
# 48 hours before each follow-up visit by the neurological investigator, a nurse visits the patient's home to take blood samples and measure the hemodynamic parameters [SAP/DAP lying down, standing up (2 min) and HR lying down, standing up (2 min)]. In addition, during each visit, the possible occurrence of adverse events will be asked to patients. The nurse visits are scheduled between D-7 and D-2 to confirm the patient's inclusion, then at D13 (for visit V2 at D15), D43 (for visit V3 at D45) and D88 (for the end of study visit at D90). No fasting was required for the biologic assessments. To ensure the safety of the food supplement, all biological parameters must be within the limits of reference values and/or judged by the investigating physician as non-clinical.
# Safety biology, pharmacokinetics and hemodynamic constants (D13; D43; D88): A blood sample is collected by a nurse at patient's home 48 hours before the visit to the investigational site (D13; D43 and D88) so that the investigator has the biological safety results on the day of the consultation.
# The required bioassessment is the same as the inclusion one (D-2) and include: • Complete and differential Blood cells Counts, • Metabolic/biochemical parameters: lonogram (Na+, K+, Cl−), Glycated hemoglobin (HbA1C) • Inflammatory assessment: CRP, sedimentation rate, • Liver check-up: AST, ALT, gamma GT, ALP, bilirubin • Renal assessment: Creatinemia, urea, • Cardiac and muscular assessment: CPK;
# Also, an aliquot of acidified whole blood is stored at the AML at −80° C. for the determination of NMN metabolites. The hemodynamic constants (BP and HR standing up/lying down) are taken and entered in the patient's follow-up notebook by the nurse. The nurse also questions the patient on the possible occurrence of adverse events and checks the patient's compliance with treatment by filling in his or her follow-up notebook and pill box. On receipt, the investigating physician check the results: the blood parameters must be within the reference value limits and/or judged by the investigating physician as not clinically relevant. Otherwise, the patient is summoned without delay by the investigating physician to leave the study prematurely.
# At D90, the safety and tolerance of the study product is assessed by the investigating physician during the visits provided for in the protocol by means of an interview with the patient, information gathered by the volunteer in the daily diary, a clinical examination (including blood pressure and heart rate measurements) and a blood test. All patients continued to take their usual treatment for MSA.
# [2] = Blood level of NMN and NAD
# Description: The secondary objectives describe the characteristics of the patients who participated in the research, and aim at studying the pharmacokinetics of NMN in daily oral use and its impact on increasing NAD+ levels, and, in a preliminary way, at evaluating the potential benefits of NMN supplementation on the symptomatology related to multi-systemic atrophy syndrome MSA such as activities of daily living, motor disorders, orthostatic hypotension and autonomy using the validated […] scale. [table] Also, an aliquot of serum is stored at the laboratory at -80° C. for the determination of the patient's physiological NAD+ (Baseline) level by the promoter. The results are sent to the investigating responsible for checking these parameters (regarding the laboratory's standards) and validating or not the patient's eligibility. […] Also, an aliquot of acidified whole blood is stored at the AML at -80° C. for the determination of NMN metabolites. The hemodynamic constants (BP and HR standing up/lying down) are taken and entered in the patient's follow-up notebook by the nurse. The nurse also questions the patient on the possible occurrence of adverse events and checks the patient's compliance with treatment by filling in his or her follow-up notebook and pill box. On receipt, the investigating physician check the results: the blood parameters must be within the reference value limits and/or judged by the investigating physician as not clinically relevant. Otherwise, the patient is summoned without delay by the investigating physician to leave the study prematurely.
# MSA patients [3] = assay: Quality of life, MSA-QoL self-questionnaire; settings: for MSA-QoL non-motor subscore, average difference compared to V1: V1 30.4±10.0 points; for MSA-QoL Motor subscore, average difference compared to V1: V1 40.1±19.0 points
# Description: [table] At this visit, the investigator checks the patient's completed follow-up notebook (compliance, adverse event (AE), treatments) and carries out an interrogation and clinical examination, including the taking of standing and lying hemodynamic constants (SAP/DAP and HR) in order to check the tolerance and the possible occurrence of an adverse event. Compliance is also monitored. The patient is asked to complete a quality of life questionnaire (MSA-QoL). Quality of life—MSA—QoL: the MSA-QoL scale is organized into 4 subsections: • Motor sub-score: items 1 to 14; • Non-motor sub-score: items 15 to 26; • Emotional/social sub-score: items 27 to 40. • Overall satisfaction of quality of life of 100 mm to describe the patient's overall satisfaction with their life.
# [4] = 3-month supplementation with NMN (400 mg/day) per os, MSA patients, mITT and PP
# [5] = at 3 months, mITT and PP populations
# [6] = mITT population, V3, p-value >0.05
# [7] = mITT population, V4, p-value >0.05
compound,measurement,setting,value
"NC(=O)c1ccc[n+]([C@@H]2O[C@H](COP(=O)([O-])O)[C@@H](O)[C@H]2O)c1 [beta-NMN, nicotinamide mononucleotide]",ionogram and glycated hemoglobin level,MSA patients [1]; 3-month follow-up,stable
same,impact on liver function,MSA patients [1]; 3 months,does not thus have an impact
same,induction of inflammation,MSA patients [1]; 3 months,does not thus induce inflammation
same,creatine phosphokinase,MSA patients [1]; 3 months of follow-up,relatively stable
same,liver parameters,MSA patients [1]; 3 months of follow-up,relatively stable
same,renal parameters,MSA patients [1]; 3 months of follow-up,relatively stable
same,inflammatory parameters,"MSA patients [1]; 3 months of follow-up, within or outside reference values, not clinically relevant",relatively stable
same,blood count values,"MSA patients [1]; 3 months of follow-up, within reference limits or not clinically relevant",relatively stable
same,"safety and tolerance, conclusion","MSA patients [1]; MSA patients, 3 months",safe and well-tolerated
same,increase in average blood pressure and heart rate,"MSA patients [1]; NMN 400 mg/day, 3 months",does not thus lead to an increase
same,mean heart rate (HR),"MSA patients [1]; NMN 400 mg/day, 3 months, V0-V4 comparison p-value=0.2969",normal and stable over time
same,Mean systolic blood pressure,"MSA patients [1]; NMN 400 mg/day, 3 months, V0-V4 comparison p-value=0.6172",normal and stable over time
same,Mean diastolic blood pressure,"MSA patients [1]; NMN 400 mg/day, 3 months, V0-V4 comparison p-value=0.6719",normal and stable over time
same,"concentration of electrolytes (Na+, K+, Cl−) and glycemia",MSA patients [1]; after 3 months of treatment,does not affect
same,impact on heart and muscle function,MSA patients [1]; after 3 months of treatment,does not have an impact
same,blood levels of NAD,[2]; [4],gradually increases
same,blood levels of NMN,[2]; [4],gradually increases
same,"blood NAD level, mean value","[2]; mITT population, V4 (n=8 subjects), NMN 400 mg/day per os, V1 16183.57±4205.09 (n=4 subjects)",29194.12 ± 9706.95 ng/mL
same,"Overall satisfaction with quality of life, scaling","MSA patients [3]; PP population, V3 and V4 compared to V1",slight increase
same,MSA-QoL Emotional/Social sub-score,MSA patients [3]; [5],improvement
same,MSA-QoL Motor subscore,MSA patients [3]; [5],improvement
same,MSA-QoL non-motor subscore,MSA patients [3]; [5],improvement
same,"Overall satisfaction with quality of life, scaling","MSA patients [3]; mITT population, V2, V3 and V4 compared to V1, p-value >0.05",very slight decrease
same,"MSA-QoL non-motor subscore, average difference compared to V1","MSA patients [3]; mITT population, V2, 0 to 48, higher is worse, p-value >0.05",−2.0 points
same,"MSA-QoL Motor subscore, average difference compared to V1","MSA patients [3]; mITT population, V2, 0 to 56, higher is worse, p-value >0.05",−1.3 points
same,"MSA-QoL non-motor subscore, average difference compared to V1",MSA patients [3]; [6],−5.2 points
same,"MSA-QoL Motor subscore, average difference compared to V1",MSA patients [3]; [6],−5.6 points
same,"MSA-QoL non-motor subscore, average difference compared to V1",MSA patients [3]; [7],−4.1 points
same,"MSA-QoL Motor subscore, average difference compared to V1",MSA patients [3]; [7],−5.1 points
